Consider 20 compounds from ChEMBL document CHEMBL1909046, “DrugMatrix in vitro pharmacology data”.

Experiment [1] deals with T1, Alpha-2A adrenergic receptor (Homo sapiens, UniProt P08913).
T1 sequence (P08913 whole entry): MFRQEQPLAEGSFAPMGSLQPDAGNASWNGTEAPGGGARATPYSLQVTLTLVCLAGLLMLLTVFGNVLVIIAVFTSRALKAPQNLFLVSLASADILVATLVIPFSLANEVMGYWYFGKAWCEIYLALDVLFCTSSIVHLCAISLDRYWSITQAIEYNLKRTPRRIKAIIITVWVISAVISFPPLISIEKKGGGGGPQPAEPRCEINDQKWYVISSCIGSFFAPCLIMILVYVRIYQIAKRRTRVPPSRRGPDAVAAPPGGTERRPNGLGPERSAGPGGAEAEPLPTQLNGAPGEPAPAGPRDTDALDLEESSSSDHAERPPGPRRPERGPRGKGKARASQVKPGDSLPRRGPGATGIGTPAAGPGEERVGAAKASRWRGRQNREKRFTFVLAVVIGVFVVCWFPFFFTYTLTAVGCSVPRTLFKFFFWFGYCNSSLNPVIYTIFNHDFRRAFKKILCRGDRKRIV
Format: cell membranes, Sf9, Membrane. The following applies: for Ki: read-out: Ki.

Experiment [2] concerns the target Beta-3 adrenergic receptor (Homo sapiens, UniProt P13945). The experiment in a line: DRUGMATRIX: Adrenergic beta3 radioligand binding (ligand: [125I] Cyanopindolol). As to conditions: hek293; Not Active = under 50% inhibition at 10 µM. Type of experiment: cell membranes, HEK293, Membrane.
Experiment [3] in a line: DRUGMATRIX: Glutamate, NMDA, Phencyclidine radioligand binding (ligand: [3H] TCP). Type of experiment: cell membranes, Rattus norvegicus, Wistar, Cerebral cortex, Membrane. The following applies: Not Active = under 50% inhibition at 10 µM.
In experiment [4] the target is T2, Muscarinic acetylcholine receptor M5 (Homo sapiens, UniProt P08912). Further: in other assays of this panel Not Active means under 50% inhibition at 10 µM.
T2 sequence (P08912 whole entry): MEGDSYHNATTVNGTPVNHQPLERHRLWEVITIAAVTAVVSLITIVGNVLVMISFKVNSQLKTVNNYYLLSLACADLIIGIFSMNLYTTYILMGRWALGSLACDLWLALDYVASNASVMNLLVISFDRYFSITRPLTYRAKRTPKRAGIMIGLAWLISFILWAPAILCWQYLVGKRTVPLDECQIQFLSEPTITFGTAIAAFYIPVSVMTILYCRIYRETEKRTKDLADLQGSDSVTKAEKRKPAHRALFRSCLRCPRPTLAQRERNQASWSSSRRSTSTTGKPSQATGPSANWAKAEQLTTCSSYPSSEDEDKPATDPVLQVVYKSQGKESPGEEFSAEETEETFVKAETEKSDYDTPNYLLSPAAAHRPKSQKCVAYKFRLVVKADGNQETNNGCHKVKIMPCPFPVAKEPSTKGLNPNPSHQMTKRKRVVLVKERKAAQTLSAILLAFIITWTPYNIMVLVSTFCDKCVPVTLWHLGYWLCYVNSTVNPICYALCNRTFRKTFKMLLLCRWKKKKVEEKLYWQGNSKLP
Format: cell membranes, CHO-K1, Membrane.

Experiment [5] deals with T3, Nitric oxide synthase, inducible (Mus musculus, UniProt P29477).
T3 sequence (P29477 whole entry): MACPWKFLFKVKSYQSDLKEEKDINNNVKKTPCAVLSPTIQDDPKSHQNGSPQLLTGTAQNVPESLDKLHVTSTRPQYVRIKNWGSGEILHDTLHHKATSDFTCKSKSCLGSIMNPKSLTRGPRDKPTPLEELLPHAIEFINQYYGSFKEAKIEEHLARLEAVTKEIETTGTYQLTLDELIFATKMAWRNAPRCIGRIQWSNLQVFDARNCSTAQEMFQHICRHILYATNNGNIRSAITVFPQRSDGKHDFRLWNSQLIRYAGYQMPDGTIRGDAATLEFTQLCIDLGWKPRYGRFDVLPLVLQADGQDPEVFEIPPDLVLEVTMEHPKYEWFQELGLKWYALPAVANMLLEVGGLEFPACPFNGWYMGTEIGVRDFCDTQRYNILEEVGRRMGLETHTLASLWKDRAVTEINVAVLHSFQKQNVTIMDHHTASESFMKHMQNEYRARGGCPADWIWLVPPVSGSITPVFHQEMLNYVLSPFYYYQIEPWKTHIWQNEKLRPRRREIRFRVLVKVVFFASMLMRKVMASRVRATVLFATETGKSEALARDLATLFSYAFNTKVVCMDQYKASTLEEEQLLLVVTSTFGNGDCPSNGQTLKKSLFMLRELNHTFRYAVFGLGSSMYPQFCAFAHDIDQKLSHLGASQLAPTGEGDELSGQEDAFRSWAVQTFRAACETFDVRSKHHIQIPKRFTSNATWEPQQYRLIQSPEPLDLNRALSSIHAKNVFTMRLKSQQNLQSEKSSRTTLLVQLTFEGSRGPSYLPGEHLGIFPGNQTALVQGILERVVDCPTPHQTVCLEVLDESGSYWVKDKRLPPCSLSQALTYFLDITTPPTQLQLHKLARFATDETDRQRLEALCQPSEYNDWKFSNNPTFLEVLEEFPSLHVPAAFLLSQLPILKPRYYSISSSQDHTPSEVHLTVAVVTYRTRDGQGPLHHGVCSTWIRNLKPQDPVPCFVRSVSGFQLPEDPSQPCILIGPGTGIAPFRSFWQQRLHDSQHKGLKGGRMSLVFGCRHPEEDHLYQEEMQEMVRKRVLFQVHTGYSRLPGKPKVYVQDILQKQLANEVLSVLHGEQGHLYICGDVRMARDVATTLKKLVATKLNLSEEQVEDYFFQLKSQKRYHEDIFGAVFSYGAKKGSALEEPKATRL
Also noted: species or system Escherichia coli.

Chain of Beta-3 adrenergic receptor (P13945 whole entry): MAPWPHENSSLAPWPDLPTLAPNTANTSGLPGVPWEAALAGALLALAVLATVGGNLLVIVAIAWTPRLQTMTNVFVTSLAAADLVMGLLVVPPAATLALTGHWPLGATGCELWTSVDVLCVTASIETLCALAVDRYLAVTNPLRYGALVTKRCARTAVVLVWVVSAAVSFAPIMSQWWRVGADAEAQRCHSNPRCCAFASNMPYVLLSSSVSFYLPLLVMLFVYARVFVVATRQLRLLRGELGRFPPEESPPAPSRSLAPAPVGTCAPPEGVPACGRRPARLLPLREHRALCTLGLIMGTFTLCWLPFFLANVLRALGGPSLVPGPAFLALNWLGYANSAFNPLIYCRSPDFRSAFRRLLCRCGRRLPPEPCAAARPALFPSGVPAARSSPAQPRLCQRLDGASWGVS

As a reminder, the IC50 is the midpoint of a concentration-inhibition curve. As usually defined, the Ki is the dissociation constant of the complex between target and ligand, obtained from inhibition or displacement. As for `CN(C)CCC=C1c2ccccc2CCc2ccccc21` [AMITRIPTYLINE], the IC50 in experiment [1] (read-out: IC50) is 351 nM; in experiment [2], “Not Active”; in experiment [3], “Not Active”; in experiment [4] (read-out: IC50), 8.02 nM; in experiment [5], “Not Active”. Moreover, the Ki in experiment [1] was 132 nM; in experiment [3], “Not Active”; in experiment [4] (read-out: Ki) it was 5.76 nM.

For the compound `CC(=O)Oc1ccccc1C(=O)O` [ASPIRIN], the IC50 result in experiment [1] (sf9), in experiment [2], in experiment [3], in experiment [4] (cho-k1) and in experiment [5] was “Not Active” throughout. For the same compound, in experiment [3], the Ki entry is listed as “Not Active”.

For the compound `CC(C)c1c(C(=O)Nc2ccccc2)c(-c2ccccc2)c(-c2ccc(F)cc2)n1CC[C@@H](O)C[C@@H](O)CC(=O)O` [ATORVASTATIN], the IC50 entry in experiment [1] (sf9), in experiment [2], in experiment [3], in experiment [4] (cho-k1) and in experiment [5] was “Not Active” throughout. The Ki entry in experiment [3] is given as “Not Active”.

With `CC(=O)OC[C@H]1O[C@@H](n2ncc(=O)[nH]c2=O)[C@H](OC(C)=O)[C@@H]1OC(C)=O` [AZARIBINE], the IC50 result in experiment [1] (sf9), in experiment [2], in experiment [3] and in experiment [5] was “Not Active” throughout. The Ki result in experiment [3] and in experiment [4] (cho-k1) was “Not Active” each time.

Consider `C[C@H]1[C@H](NC(=O)/C(=N\OC(C)(C)C(=O)O)c2csc(N)n2)C(=O)N1S(=O)(=O)O` [AZTREONAM], for which the IC50 entry in experiment [1] (sf9), in experiment [2], in experiment [3], in experiment [4] (cho-k1) and in experiment [5] was “Not Active” each time. Moreover, the Ki entry in experiment [3] is listed as “Not Active”.

Regarding `O=C(O)CCNC(=O)c1ccc(/N=N/c2ccc(O)c(C(=O)O)c2)cc1` [BALSALAZIDE], the IC50 entry in experiment [1] (sf9), in experiment [2], in experiment [3], in experiment [4] (cho-k1) and in experiment [5] was “Not Active” in each case. In addition, the Ki entry in experiment [3] was “Not Active”.

Take `COc1cc(OC)c(C(=O)CCCN2CCCC2)c(OC)c1` [BUFLOMEDIL]: the IC50 entry in experiment [1] (sf9), in experiment [2], in experiment [3], in experiment [4] (cho-k1) and in experiment [5] was “Not Active” throughout. Moreover, in experiment [3], the Ki entry is “Not Active”.

In the case of `Cn1c(=O)c2c(ncn2C)n(C)c1=O` [CAFFEINE], the IC50 entry in experiment [1] (sf9), in experiment [2], in experiment [3], in experiment [4] (cho-k1) and in experiment [5] was “Not Active” each time. In addition, in experiment [3], the Ki result is “Not Active”.

In the case of `ClC(Cl)(Cl)Cl` [CARBON TETRACHLORIDE], the IC50 result in experiment [1] (sf9), in experiment [2], in experiment [3], in experiment [4] (cho-k1) and in experiment [5] was “Not Active” in each case. Besides, in experiment [3], the Ki result is recorded as “Not Active”.

On to `CO/N=C(\C(=O)N[C@@H]1C(=O)N2C(C(=O)O)=C(COC(C)=O)CS[C@H]12)c1csc(N)n1` [CEFOTAXIME], for which the IC50 entry in experiment [1] (sf9), in experiment [2], in experiment [3], in experiment [4] (cho-k1) and in experiment [5] was “Not Active” in each case. Also, the Ki entry in experiment [3] is “Not Active”.

`CNC1=Nc2ccc(Cl)cc2C(c2ccccc2)=[N+]([O-])C1` [CHLORDIAZEPOXIDE]: the IC50 entry in experiment [1] (sf9), in experiment [2], in experiment [3], in experiment [4] (cho-k1) and in experiment [5] was “Not Active” each time. Moreover, the Ki result in experiment [3] is on record as “Not Active”.

Take `Cc1cc(O)cc(C)c1Cl` [CHLOROXYLENOL]: the IC50 result in experiment [1] (sf9), in experiment [2], in experiment [3], in experiment [4] (cho-k1) and in experiment [5] was “Not Active” throughout. The Ki entry in experiment [3] is reported as “Not Active”.

For the compound `CCCNC(=O)NS(=O)(=O)c1ccc(Cl)cc1` [CHLORPROPAMIDE], the IC50 result in experiment [1] (sf9), in experiment [2], in experiment [3], in experiment [4] (cho-k1) and in experiment [5] was “Not Active” throughout. The Ki entry in experiment [3] is on record as “Not Active”.

As for `NS(=O)(=O)c1cc(C2(O)NC(=O)c3ccccc32)ccc1Cl` (centres undefined) [CHLORTHALIDONE], the IC50 result in experiment [1] (sf9), in experiment [2], in experiment [3], in experiment [4] (cho-k1) and in experiment [5] was “Not Active” each time. For the same compound, in experiment [3], the Ki result is “Not Active”.

As to `O=C(O)CC(O)(CC(=O)O)C(=O)O` [CITRIC ACID], the IC50 entry in experiment [1] (sf9), in experiment [2], in experiment [3], in experiment [4] (cho-k1) and in experiment [5] was “Not Active” each time. In experiment [3], the Ki entry is reported as “Not Active”.

Turning to `CC(C)NCC(O)c1ccccc1Cl` (centres undefined) [CLORPRENALINE], the IC50 result in experiment [1] (sf9), in experiment [2], in experiment [3], in experiment [4] (cho-k1) and in experiment [5] was “Not Active” in each case. In addition, the Ki entry in experiment [3] is reported as “Not Active”.

Turning to `CN1CCN(C(c2ccccc2)c2ccccc2)CC1` [CYCLIZINE], the IC50 in experiment [1] (read-out: IC50) is 1550 nM; in experiment [2], “Not Active”; in experiment [3] it was “Not Active”; in experiment [4] (read-out: IC50), 633 nM; in experiment [5], “Not Active”. The figures for the Ki in experiment [1], in experiment [3] and in experiment [4] (read-out: Ki) were 582 nM, “Not Active” and 455 nM, respectively.

Regarding `CN1C[C@@H]2C[C@H]1CN2c1cc2c(cc1F)c(=O)c(C(=O)O)cn2C1CC1` [DANOFLOXACIN], the IC50 entry in experiment [1] (sf9), in experiment [2], in experiment [3], in experiment [4] (cho-k1) and in experiment [5] was “Not Active” throughout. Besides, the Ki entry in experiment [3] is reported as “Not Active”.

With `COc1cccc2c1C(=O)c1c(O)c3c(c(O)c1C2=O)C[C@@](O)(C(C)=O)C[C@@H]3O[C@H]1C[C@H](N)[C@H](O)[C@H](C)O1` [DAUNORUBICIN], the IC50 entry in experiment [1] (sf9), in experiment [2], in experiment [3], in experiment [4] (cho-k1) and in experiment [5] was “Not Active” throughout. Moreover, in experiment [3], the Ki entry is “Not Active”.

Turning to `O=C(O)c1cc(-c2ccc(F)cc2F)ccc1O` [DIFLUNISAL], the IC50 result in experiment [1] (sf9), in experiment [2], in experiment [3], in experiment [4] (cho-k1) and in experiment [5] was “Not Active” in each case. In experiment [3], the Ki entry is recorded as “Not Active”.
